Measured values taken from patent WO2019242687A1, “1,3-dioxane-4,6-dione compound, and preparation method, pharmaceutical composition, and application thereof” (Shanghai Institute of Materia Medica of CAS, priority 2018, dated 2018).
Read-outs that look alike come from different tables or passages of the source.

How the values were obtained:
SIRT1 = molecular target: T1, SIRT1 (Homo sapiens, UniProt Q96EB6); assay: SIRT1 enzyme activity test (deacetylase inhibition); format: biochemical; details: 1 μM SIRT1, 500 μM NAD+, 10 μM substrate peptide
T1 sequence (Q96EB6 1-747): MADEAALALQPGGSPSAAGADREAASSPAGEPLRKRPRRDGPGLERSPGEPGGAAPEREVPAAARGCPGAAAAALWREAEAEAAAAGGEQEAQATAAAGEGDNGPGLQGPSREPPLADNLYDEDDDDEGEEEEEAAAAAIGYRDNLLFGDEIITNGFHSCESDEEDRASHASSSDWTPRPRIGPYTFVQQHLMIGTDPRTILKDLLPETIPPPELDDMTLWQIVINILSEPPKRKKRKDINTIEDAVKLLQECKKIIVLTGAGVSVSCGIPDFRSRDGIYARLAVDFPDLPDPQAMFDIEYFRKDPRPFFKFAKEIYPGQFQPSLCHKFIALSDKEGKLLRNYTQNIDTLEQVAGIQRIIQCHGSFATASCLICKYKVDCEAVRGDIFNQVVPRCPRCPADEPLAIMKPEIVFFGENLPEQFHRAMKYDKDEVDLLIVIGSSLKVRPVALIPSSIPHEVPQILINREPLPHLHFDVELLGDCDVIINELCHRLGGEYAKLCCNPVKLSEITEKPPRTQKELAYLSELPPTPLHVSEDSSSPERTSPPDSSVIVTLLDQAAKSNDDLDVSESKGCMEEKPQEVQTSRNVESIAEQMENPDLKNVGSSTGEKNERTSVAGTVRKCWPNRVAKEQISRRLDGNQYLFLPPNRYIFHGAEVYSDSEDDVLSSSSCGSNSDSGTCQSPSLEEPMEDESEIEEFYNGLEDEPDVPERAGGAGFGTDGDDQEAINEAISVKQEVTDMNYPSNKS

[1] = test system: p53 acetylation levels in SH-SY5Y human neuroblastoma cells; assay: Effect of compounds on p53 acetylation level in cells (Western blot); format: cell-based; details: ATRA-induced differentiation, compound 10 μM, 2 h, Figure 5
SIRT2 = molecular target: T2, SIRT2 (Homo sapiens, UniProt Q8IXJ6); assay: Inhibition of SIRT2 (as SIRT1 IC50 method)
T2 sequence (Q8IXJ6 1-389): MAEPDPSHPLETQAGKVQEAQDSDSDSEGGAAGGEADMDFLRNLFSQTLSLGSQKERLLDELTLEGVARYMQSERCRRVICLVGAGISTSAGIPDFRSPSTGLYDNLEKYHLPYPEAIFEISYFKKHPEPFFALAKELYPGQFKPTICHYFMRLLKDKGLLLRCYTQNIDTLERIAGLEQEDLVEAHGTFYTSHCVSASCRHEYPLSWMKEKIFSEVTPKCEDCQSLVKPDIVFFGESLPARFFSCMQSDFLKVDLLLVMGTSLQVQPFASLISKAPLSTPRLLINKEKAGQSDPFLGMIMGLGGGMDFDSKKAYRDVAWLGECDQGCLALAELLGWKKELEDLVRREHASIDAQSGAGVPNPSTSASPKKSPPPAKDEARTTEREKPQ

SIRT3 = molecular target: T3, SIRT3 (Homo sapiens, UniProt Q9NTG7); assay: Inhibition of SIRT3 (as SIRT1 IC50 method)
T3 sequence (Q9NTG7 1-399): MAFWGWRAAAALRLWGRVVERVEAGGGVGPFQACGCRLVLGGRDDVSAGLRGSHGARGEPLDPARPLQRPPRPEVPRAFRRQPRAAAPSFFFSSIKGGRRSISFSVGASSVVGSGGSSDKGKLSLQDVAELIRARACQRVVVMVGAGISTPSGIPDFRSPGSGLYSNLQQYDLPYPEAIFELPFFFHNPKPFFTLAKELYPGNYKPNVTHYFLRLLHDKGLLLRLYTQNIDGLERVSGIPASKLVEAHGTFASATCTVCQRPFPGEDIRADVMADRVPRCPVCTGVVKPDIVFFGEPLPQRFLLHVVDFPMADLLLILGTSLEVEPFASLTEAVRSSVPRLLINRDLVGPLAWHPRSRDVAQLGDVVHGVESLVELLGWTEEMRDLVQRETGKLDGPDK

SIRT5 = molecular target: T4, SIRT5 (Homo sapiens, UniProt Q9NXA8); assay: Inhibition of SIRT5 (as SIRT1 IC50 method)
T4 sequence (Q9NXA8 37-310): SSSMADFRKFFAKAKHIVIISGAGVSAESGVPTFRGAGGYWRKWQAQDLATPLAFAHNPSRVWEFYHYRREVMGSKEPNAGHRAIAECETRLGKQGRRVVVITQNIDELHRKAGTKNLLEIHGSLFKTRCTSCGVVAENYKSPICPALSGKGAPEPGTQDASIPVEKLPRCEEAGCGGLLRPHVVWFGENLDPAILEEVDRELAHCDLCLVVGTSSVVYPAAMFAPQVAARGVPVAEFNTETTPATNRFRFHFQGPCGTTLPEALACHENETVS

[2] = Table 2, 37 °C, 30 min, read-out: IC50
[3] = Table 3, SITR1 [sic], read-out: Inhibition of SIRT1 deacylation (IC50)

| SMILES | IC50 (SIRT1; [2]) [µM] | IC50 (SIRT1; [3]) [µM] | effect on decrease of p53 acetylation level [1] | also measured |
| --- | --- | --- | --- | --- |
| COc1cc(C=C2C(=O)OC(C)(c3ccccc3)OC2=O)cc(I)c1O (stereo not drawn) [Compound S2, 5-(4-hydroxy-3-iodo-5-methoxybenzylidene) -2-methyl-2-phenyl-1,3-dioxane-4,6-dione] | 2.45 ± 0.37 |  |  |  |
| O=C1OC(c2ccccc2)OC(=O)C1=Cc1cc(Cl)c(O)c(Cl)c1 (stereo not drawn) [Compound S15, 5-(3,5-dichloro-4-hydroxybenzylidene) -2-phenyl-1,3-dioxane-4,6-dione] |  | 1.2 ± 0.09 | 抑制ATRA诱导的SH-SY5Y细胞分化过程中p53乙酰化水平降低 |  |
| O=C1OC(c2ccccc2)OC(=O)C1=Cc1ccc(OCc2ccc3c(c2)OCO3)cc1 (stereo not drawn) [Compound S17, 5-[4-(1,3-Benzodioxolane-5-alkylmethoxy)benzylidene] -2-phenyl-1,3-dioxane-4,6-dione] | 3.41 ± 0.19 |  |  |  |
| CC1(c2ccccc2)OC(=O)C(=Cc2ccccc2)C(=O)O1 (stereo not drawn) [Compound S8, 5-benzylidene-2-methyl-2-phenyl-1,3-dioxane-4,6-dione] | > 50 |  |  |  |
| COc1cc(OC)c(C=C2C(=O)OC(c3ccccc3)OC2=O)cc1Br (stereo not drawn) [Compound S22, 5-(5-bromo-2,4-dimethoxybenzylidene) -2-phenyl-1,3-dioxane-4,6-dione] | 4.89 ± 0.35 |  |  |  |
| COc1cc(C=C2C(=O)OC(c3ccccc3)OC2=O)cc(I)c1O (stereo not drawn) [Compound S6, 5-(4-hydroxy-3-iodo-5-methoxybenzylidene) -2-phenyl-1,3-dioxane-4,6-dione] |  | 0.89 ± 0.01 | 抑制ATRA诱导的SH-SY5Y细胞分化过程中p53乙酰化水平降低 |  |
| CC(C)Oc1ccccc1C=C1C(=O)OC(c2ccccc2)OC1=O (stereo not drawn) [Compound S14, 5-(2-isopropoxybenzylidene) -2-phenyl-1,3-dioxane-4,6-dione] | 14 ± 2.01 |  |  |  |
| COc1cc(C=C2C(=O)OC(c3ccccc3)OC2=O)cc(Cl)c1O (stereo not drawn) [Compound S10, 5-(3-chloro-4-hydroxy-5-methoxybenzylidene) -2-phenyl-1,3-dioxane-4,6-dione] |  | 1.9 ± 0.53 | 抑制ATRA诱导的SH-SY5Y细胞分化过程中p53乙酰化水平降低 | IC50 (SIRT2): 64.4 ± 7.09 µM; IC50 (SIRT3): 204 ± 16.2 µM; IC50 (SIRT5): 32.5 ± 1.15 µM |
| O=C(COc1ccc(C=C2C(=O)OC(c3ccccc3)OC2=O)cc1)Nc1ccccc1 (stereo not drawn) [Compound S21, 2-{4-[(4,6-Dioxo-2-phenyl-1,3-dioxane-5-ylbenzylidene)methyl]phenoxy} -N-phenylacetamide] | 4.51 ± 1.17 |  |  |  |
